Values of other authors, collected in US20030153514A1, “Remedies for cancer” (priority 2000, published 2003).

System: NKT cells (Vα24Vβ11)
Conditions: cancer-bearing mice

CCCCCCCCCCCCCCCCCCCCCCCCCC(=O)N[C@@H](CO[C@H]1O[C@H](CO)[C@H](O)[C@H](O)[C@H]1O)[C@H](O)[C@H](O)CCCCCCCCCCCCCC [α-galactosylceramide]
NKT cells: activated | disappearance of cancer: not observed | metastasis: suppressed
